Measurements reported in US10035760B2, “Inhibitors of human immunodeficiency virus replication” (priority 2013, dated 2018).
Like-named read-outs stand apart in the source and are kept apart here.

System: recombinant NL4-3 virus (Renilla luciferase) in MT-2 cells
Test: HIV cell culture assay (antiviral activity, luciferase readout in infected MT-2 cells)
Assay type: cell-based
How it was run: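 Nef-deleted NL4-3 carrying Renilla luciferase, produced by 293T transfection, used to infect MT-2 cells for 4–5 days with serial compound dilutions. Live-cell luciferase signal read as infection marker; EC50 from exponential median-effect equation.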

[1] = Renilla, NL43, read-out: Activity, antiviral activity class, recombinant NL4-3 Renilla luciferase virus in MT-2 cells
[2] = Renilla, NL43, recombinant NL4-3 Renilla luciferase virus in MT-2 cells

SMILES	EC50 [1]	EC50 [2]	EC50 (read-out: Activity, antiviral activity class, recombinant NL4-3 Renilla luciferase virus in MT-2 cells)
CCN(C(=O)[C@H](Cc1ccccc1)NC(=O)NS(=O)(=O)c1ccccc1C(=O)OC)c1ccc(OC)cc1 [Example 114, (S)-methyl 2-(N-((1-(ethyl(4-methoxyphenyl)amino)-1-oxo-3-phenylpropan-2-yl)carbamoyl)sulfamoyl)benzoate]	1000 to 10000 nM	1060 nM	–
CCN(C(=O)[C@H](Cc1ccccc1)NC(=O)NS(=O)(=O)c1cccc(Br)c1C)c1ccc(OC)cc1 [Example 115, (S)-2-(3-((3-bromo-2-methylphenyl)sulfonyl)ureido)-N-ethyl-N-(4-methoxyphenyl)-3-phenylpropanamide]	< 100 nM	–	–
CCN(C(=O)[C@H](Cc1ccccc1)NC(=O)NS(=O)(=O)c1cccc2ccccc12)c1ccc(OC)cc1 [Example 116, (S)—N-ethyl-N-(4-methoxyphenyl)-2-(3-(naphthalen-1-ylsulfonyl)ureido)-3-phenylpropanamide]	< 100 nM	–	–
CCN(C(=O)[C@H](Cc1ccccc1)NC(=O)NS(=O)(=O)c1ccccc1F)c1ccc(OC)cc1 [Example 117, (S)—N-ethyl-2-(3-((2-fluorophenyl)sulfonyl)ureido)-N-(4-methoxyphenyl)-3-phenylpropanamide]	< 100 nM	–	–
CCN(C(=O)[C@H](Cc1ccccc1)NC(=O)NS(=O)(=O)c1c(F)cccc1F)c1ccc(OC)cc1 [Example 118, (S)-2-(3-((2,6-difluorophenyl)sulfonyl)ureido)-N-ethyl-N-(4-methoxyphenyl)-3-phenylpropanamide]	< 100 nM	40 nM	–
CCN(C(=O)[C@H](Cc1ccccc1)NC(=O)NS(=O)(=O)c1cccc(Cl)c1Cl)c1ccc(OC)cc1 [Example 119, (S)-2-(3-((2,3-dichlorophenyl)sulfonyl)ureido)-N-ethyl-N-(4-methoxyphenyl)-3-phenylpropanamide]	< 100 nM	–	–
CCN(C(=O)[C@H](Cc1ccccc1)NC(=O)NS(=O)(=O)c1cc(Br)ccc1C)c1ccc(OC)cc1 [Example 120, (S)-2-(3-((5-bromo-2-methylphenyl)sulfonyl)ureido)-N-ethyl-N-(4-methoxyphenyl)-3-phenylpropanamide]	100 to 1000 nM	–	–
CCN(C(=O)[C@H](Cc1ccccc1)NC(=O)NS(=O)(=O)c1cccc(-c2ccoc2)c1)c1ccc(OC)cc1 [Example 121, (S)—N-ethyl-2-(3-((3-(furan-3-yl)phenyl)sulfonyl)ureido)-N-(4-methoxyphenyl)-3-phenylpropanamide]	< 100 nM	–	–
CCN(C(=O)[C@H](Cc1ccccc1)NC(=O)NS(=O)(=O)c1cccc(-c2ccoc2)c1C)c1ccc(OC)cc1 [Example 122, (S)—N-ethyl-2-(3-((3-(furan-3-yl)-2-methylphenyl)sulfonyl)ureido)-N-(4-methoxyphenyl)-3-phenylpropanamide]	100 to 1000 nM	–	–
CCN(C(=O)[C@H](Cc1ccccc1)NC(=O)NS(=O)(=O)c1cc(-c2ccoc2)ccc1C)c1ccc(OC)cc1 [Example 123, (S)—N-ethyl-2-(3-((5-(furan-3-yl)-2-methylphenyl)sulfonyl)ureido)-N-(4-methoxyphenyl)-3-phenylpropanamide]	100 to 1000 nM	660 nM	–
CN(C(=O)[C@H](Cc1ccccc1)NC(=O)NS(=O)(=O)c1ccccc1-c1ccc(CO)cc1)c1ccc2c(c1)OCO2 [Example 124, (S)—N-(benzo[d][1,3]dioxol-5-yl)-2-(3-((4′-(hydroxymethyl)-[1,1′-biphenyl]-2-yl)sulfonyl)ureido)-N-methyl-3-phenylpropanamide]	1000 to 10000 nM	–	–
CN(C(=O)[C@H](Cc1ccccc1)NC(=O)NS(=O)(=O)c1ccccc1-c1cccc(O)c1)c1ccc2c(c1)OCO2 [Example 125, (S)—N-(benzo[d][1,3]dioxol-5-yl)-2-(3-((3′-hydroxy-[1,1′-biphenyl]-2-yl)sulfonyl)ureido)-N-methyl-3-phenylpropanamide]	1000 to 10000 nM	–	–
COc1ccc(-c2ccccc2S(=O)(=O)NC(=O)N[C@@H](Cc2ccccc2)C(=O)N(C)c2ccc3c(c2)OCO3)cn1 [Example 126, (S)—N-(benzo[d][1,3]dioxol-5-yl)-2-(3-((2-(6-methoxypyridin-3-yl)phenyl)sulfonyl)ureido)-N-methyl-3-phenylpropanamide]	10000 to 100000 nM	–	–
CN(C(=O)[C@H](Cc1ccccc1)NC(=O)NS(=O)(=O)c1ccccc1-c1cncnc1)c1ccc2c(c1)OCO2 [Example 127, (S)—N-(benzo[d][1,3]dioxol-5-yl)-N-methyl-3-phenyl-2-(3-((2-(pyrimidin-5-yl)phenyl)sulfonyl)ureido)propanamide]	10000 to 100000 nM	21700 nM	–
CN(C(=O)[C@H](Cc1ccccc1)NC(=O)NS(=O)(=O)c1ccccc1-c1cccnc1)c1ccc2c(c1)OCO2 [Example 128, (S)—N-(benzo[d][1,3]dioxol-5-yl)-N-methyl-3-phenyl-2-(3-((2-(pyridin-3-yl)phenyl)sulfonyl)ureido)propanamide]	1000 to 10000 nM	–	–
COc1ncccc1-c1ccccc1S(=O)(=O)NC(=O)N[C@@H](Cc1ccccc1)C(=O)N(C)c1ccc2c(c1)OCO2 [Example 129, (S)—N-(benzo[d][1,3]dioxol-5-yl)-2-(3-((2-(2-methoxypyridin-3-yl)phenyl)sulfonyl)ureido)-N-methyl-3-phenylpropanamide]	1000 to 10000 nM	5520 nM	–

SMILES	EC50 [1]	EC50 [2]	EC50 (read-out: Activity, antiviral activity class, recombinant NL4-3 Renilla luciferase virus in MT-2 cells)
COc1ncc(-c2ccccc2S(=O)(=O)NC(=O)N[C@@H](Cc2ccccc2)C(=O)N(C)c2ccc3c(c2)OCO3)cn1 [Example 130, (S)—N-(benzo[d][1,3]dioxol-5-yl)-2-(3-((2-(2-methoxypyrimidin-5-yl)phenyl)sulfonyl)ureido)-N-methyl-3-phenylpropanamide]	1000 to 10000 nM	–	–
CN(C(=O)[C@H](Cc1ccccc1)NC(=O)NS(=O)(=O)c1ccccc1-c1ccc(C(N)=O)cc1)c1ccc2c(c1)OCO2 [Example 131, (S)-2′-(N-((1-(benzo[d][1,3]dioxol-5-yl(methyl)amino)-1-oxo-3-phenylpropan-2-yl)carbamoyl)sulfamoyl)-[1,1′-biphenyl]-4-carboxamide]	10000 to 100000 nM	–	–
CN(C(=O)[C@H](Cc1ccccc1)NC(=O)NS(=O)(=O)c1ccccc1-c1ccsc1)c1ccc2c(c1)OCO2 [Example 132, (S)—N-(benzo[d][1,3]dioxol-5-yl)-N-methyl-3-phenyl-2-(3-((2-(thiophen-3-yl)phenyl)sulfonyl)ureido)propanamide]	10000 to 100000 nM	–	–
CN(C(=O)[C@H](Cc1ccccc1)NC(=O)NS(=O)(=O)c1ccccc1-c1cnn(C)c1)c1ccc2c(c1)OCO2 [Example 133, (S)—N-(benzo[d][1,3]dioxol-5-yl)-N-methyl-2-(3-((2-(1-methyl-1H-pyrazol-4-yl)phenyl)sulfonyl)ureido)-3-phenylpropanamide]	–	–	100 to 1000 nM
C=C(C)c1ccccc1S(=O)(=O)NC(=O)N[C@@H](Cc1ccccc1)C(=O)N(C)c1ccc2c(c1)OCO2 [Example 134, (S)—N-(benzo[d][1,3]dioxol-5-yl)-N-methyl-3-phenyl-2-(3-((2-(prop-1-en-2-yl)phenyl)sulfonyl)ureido)propanamide]	1000 to 10000 nM	–	–
CC(C)c1ccccc1S(=O)(=O)NC(=O)N[C@@H](Cc1ccccc1)C(=O)N(C)c1ccc2c(c1)OCO2 [Example 135, (S)—N-(benzo[d][1,3]dioxol-5-yl)-2-(3-((2-isopropylphenyl)sulfonyl)ureido)-N-methyl-3-phenylpropanamide]	100 to 1000 nM	–	–
C=Cc1ccccc1S(=O)(=O)NC(=O)N[C@@H](Cc1ccccc1)C(=O)N(C)c1ccc2c(c1)OCO2 [Example 136, (S)—N-(benzo[d][1,3]dioxol-5-yl)-N-methyl-3-phenyl-2-(3-((2-vinylphenyl)sulfonyl)ureido)propanamide]	< 100 nM	–	–
C/C=C\c1ccccc1S(=O)(=O)NC(=O)N[C@@H](Cc1ccccc1)C(=O)N(C)c1ccc2c(c1)OCO2 [Example 137, (S,Z)—N-(benzo[d][1,3]dioxol-5-yl)-N-methyl-3-phenyl-2-(3-((2-(prop-1-en-1-yl)phenyl)sulfonyl)ureido)propanamide]	100 to 1000 nM	–	–
C=Cc1cccc(S(=O)(=O)NC(=O)N[C@@H](Cc2ccccc2)C(=O)N(CC)c2ccc(OC)cc2)c1 [Example 138, (S)—N-ethyl-N-(4-methoxyphenyl)-3-phenyl-2-(3-((3-vinylphenyl)sulfonyl)ureido)propanamide]	< 100 nM	50 nM	–
C=C(C)c1cccc(S(=O)(=O)NC(=O)N[C@@H](Cc2ccccc2)C(=O)N(CC)c2ccc(OC)cc2)c1 [Example 139, (S)—N-ethyl-N-(4-methoxyphenyl)-3-phenyl-2-(3-((3-(prop-en-2-yl)phenyl)sulfonyl)ureido)propanamide]	< 100 nM	–	–
C/C=C\c1cccc(S(=O)(=O)NC(=O)N[C@@H](Cc2ccccc2)C(=O)N(CC)c2ccc(OC)cc2)c1 [Example 140]	< 100 nM	–	–
CCc1cccc(S(=O)(=O)NC(=O)N[C@@H](Cc2ccccc2)C(=O)N(CC)c2ccc(OC)cc2)c1 [Example 141, (S)—N-ethyl-2-(3-((3-ethylphenyl)sulfonyl)ureido)-N-(4-methoxyphenyl)-3-phenylpropanamide]	< 100 nM	–	–
CCCc1cccc(S(=O)(=O)NC(=O)N[C@@H](Cc2ccccc2)C(=O)N(CC)c2ccc(OC)cc2)c1 [Example 142, (S)—N-ethyl-N-(4-methoxyphenyl)-3-phenyl-2-(3-((3-propylphenyl)sulfonyl)ureido)propanamide]	< 100 nM	60 nM	–
CCN(C(=O)[C@H](Cc1ccccc1)NC(=O)NS(=O)(=O)c1cccc(C(C)C)c1)c1ccc(OC)cc1 [Example 143, (S)—N-ethyl-2-(3-((3-isopropylphenyl)sulfonyl)ureido)-N-(4-methoxyphenyl)-3-phenylpropanamide]	< 100 nM	–	–
CCc1ccc(C)c(S(=O)(=O)NC(=O)N[C@@H](Cc2ccccc2)C(=O)N(CC)c2ccc(OC)cc2)c1 [Example 144, (S)—N-ethyl-2-(3-((5-ethyl-2-methylphenyl)sulfonyl)ureido)-N-(4-methoxyphenyl)-3-phenylpropanamide]	100 to 1000 nM	620 nM	–
